Source: the CheMixHub viscosity set
± gives the uncertainty stated by the source.

Assay: xn = mol fraction of the nth substance listed

NCCN + O
Details	viscosity [mPa·s]
298.15 K, 101 kPa, x1 = 0.044	1.221 ± 0.033
298.15 K, 101 kPa, x1 = 0.086	1.932 ± 0.053
298.15 K, 101 kPa, x1 = 0.161	4.028 ± 0.12
298.15 K, 101 kPa, x1 = 0.194	5.2 ± 0.16
298.15 K, 101 kPa, x1 = 0.245	6.69 ± 0.21
298.15 K, 101 kPa, x1 = 0.3	8.057 ± 0.26
298.15 K, 101 kPa, x1 = 0.33	8.351 ± 0.27
298.15 K, 101 kPa, x1 = 0.35	8.258 ± 0.27
298.15 K, 101 kPa, x1 = 0.374	7.825 ± 0.25
298.15 K, 101 kPa, x1 = 0.387	7.734 ± 0.24
298.15 K, 101 kPa, x1 = 0.397	7.379 ± 0.24
298.15 K, 101 kPa, x1 = 0.416	7.048 ± 0.22
298.15 K, 101 kPa, x1 = 0.441	6.544 ± 0.21
298.15 K, 101 kPa, x1 = 0.45	6.374 ± 0.2
298.15 K, 101 kPa, x1 = 0.474	6.012 ± 0.18
298.15 K, 101 kPa, x1 = 0.502	5.885 ± 0.18
298.15 K, 101 kPa, x1 = 0.517	5.667 ± 0.17
298.15 K, 101 kPa, x1 = 0.528	5.43 ± 0.17
298.15 K, 101 kPa, x1 = 0.55	4.61 ± 0.14
298.15 K, 101 kPa, x1 = 0.599	3.684 ± 0.11
298.15 K, 101 kPa, x1 = 0.664	3.054 ± 0.086
298.15 K, 101 kPa, x1 = 0.699	2.569 ± 0.071
298.15 K, 101 kPa, x1 = 0.801	1.94 ± 0.053
298.15 K, 101 kPa, x1 = 0.9	1.533 ± 0.041
303.15 K, 101.3 kPa, x1 = 0.1138	2.607 ± 0.26
303.15 K, 101.3 kPa, x1 = 0.2306	6.369 ± 0.64
303.15 K, 101.3 kPa, x1 = 0.3102	7.766 ± 0.78
303.15 K, 101.3 kPa, x1 = 0.4116	6.837 ± 0.69
303.15 K, 101.3 kPa, x1 = 0.5452	4.416 ± 0.44
303.15 K, 101.3 kPa, x1 = 0.6294	3.321 ± 0.33
303.15 K, 101.3 kPa, x1 = 0.7296	2.434 ± 0.24
303.15 K, 101.3 kPa, x1 = 0.8507	1.789 ± 0.18
303.15 K, 101.33 kPa, x1 = 0.05	1.368 ± 0.01
303.15 K, 101.33 kPa, x1 = 0.0999	2.291 ± 0.016
303.15 K, 101.33 kPa, x1 = 0.15	3.635 ± 0.025
303.15 K, 101.33 kPa, x1 = 0.1998	5.292 ± 0.036
303.15 K, 101.33 kPa, x1 = 0.2488	6.797 ± 0.045
303.15 K, 101.33 kPa, x1 = 0.2749	7.372 ± 0.048
303.15 K, 101.33 kPa, x1 = 0.2997	7.678 ± 0.05
303.15 K, 101.33 kPa, x1 = 0.3246	7.767 ± 0.051
303.15 K, 101.33 kPa, x1 = 0.3488	7.67 ± 0.051
303.15 K, 101.33 kPa, x1 = 0.3739	7.384 ± 0.05
303.15 K, 101.33 kPa, x1 = 0.3944	7.02 ± 0.048
303.15 K, 101.33 kPa, x1 = 0.4542	5.965 ± 0.042
308.15 K, 101.3 kPa, x1 = 0.1138	2.203 ± 0.22
308.15 K, 101.3 kPa, x1 = 0.2306	5.069 ± 0.51
308.15 K, 101.3 kPa, x1 = 0.3102	6.072 ± 0.61
308.15 K, 101.3 kPa, x1 = 0.4116	5.411 ± 0.54
308.15 K, 101.3 kPa, x1 = 0.5452	3.639 ± 0.36
308.15 K, 101.3 kPa, x1 = 0.6294	2.793 ± 0.28
308.15 K, 101.3 kPa, x1 = 0.7296	2.01 ± 0.2
308.15 K, 101.3 kPa, x1 = 0.8507	1.574 ± 0.16
308.15 K, 101.33 kPa, x1 = 0.05	1.208 ± 0.008
308.15 K, 101.33 kPa, x1 = 0.0999	1.971 ± 0.014
308.15 K, 101.33 kPa, x1 = 0.15	3.059 ± 0.021
308.15 K, 101.33 kPa, x1 = 0.1998	4.347 ± 0.03
308.15 K, 101.33 kPa, x1 = 0.2488	5.484 ± 0.038
308.15 K, 101.33 kPa, x1 = 0.2749	5.92 ± 0.04
308.15 K, 101.33 kPa, x1 = 0.2997	6.133 ± 0.042
308.15 K, 101.33 kPa, x1 = 0.3246	6.213 ± 0.042
313.15 K, 101.3 kPa, x1 = 0.1138	1.911 ± 0.19
313.15 K, 101.3 kPa, x1 = 0.2306	4.122 ± 0.41
313.15 K, 101.3 kPa, x1 = 0.3102	4.906 ± 0.49
313.15 K, 101.3 kPa, x1 = 0.4116	4.41 ± 0.44
313.15 K, 101.3 kPa, x1 = 0.5452	3.07 ± 0.31
313.15 K, 101.3 kPa, x1 = 0.6294	2.402 ± 0.24
313.15 K, 101.3 kPa, x1 = 0.7296	1.842 ± 0.18
313.15 K, 101.3 kPa, x1 = 0.8507	1.416 ± 0.14
318.15 K, 101.3 kPa, x1 = 0.1138	1.652 ± 0.17
318.15 K, 101.3 kPa, x1 = 0.2306	3.388 ± 0.34
318.15 K, 101.3 kPa, x1 = 0.3102	3.963 ± 0.4
318.15 K, 101.3 kPa, x1 = 0.4116	3.585 ± 0.36
318.15 K, 101.3 kPa, x1 = 0.5452	2.574 ± 0.26
318.15 K, 101.3 kPa, x1 = 0.6294	2.066 ± 0.21
318.15 K, 101.3 kPa, x1 = 0.7296	1.613 ± 0.16
318.15 K, 101.3 kPa, x1 = 0.8507	1.258 ± 0.13
323.15 K, 101 kPa, x1 = 0.044	0.684 ± 0.018
323.15 K, 101 kPa, x1 = 0.086	0.92 ± 0.025
323.15 K, 101 kPa, x1 = 0.161	1.549 ± 0.045
323.15 K, 101 kPa, x1 = 0.194	1.881 ± 0.056
323.15 K, 101 kPa, x1 = 0.245	2.184 ± 0.067
323.15 K, 101 kPa, x1 = 0.3	2.551 ± 0.08
323.15 K, 101 kPa, x1 = 0.33	2.571 ± 0.081
323.15 K, 101 kPa, x1 = 0.35	2.643 ± 0.083
323.15 K, 101 kPa, x1 = 0.374	2.423 ± 0.076
323.15 K, 101 kPa, x1 = 0.387	2.401 ± 0.076
323.15 K, 101 kPa, x1 = 0.397	2.306 ± 0.072
323.15 K, 101 kPa, x1 = 0.416	2.291 ± 0.071
323.15 K, 101 kPa, x1 = 0.441	2.214 ± 0.068
323.15 K, 101 kPa, x1 = 0.45	2.069 ± 0.064
323.15 K, 101 kPa, x1 = 0.474	2.058 ± 0.062
323.15 K, 101 kPa, x1 = 0.502	1.991 ± 0.061
323.15 K, 101 kPa, x1 = 0.517	1.919 ± 0.058
323.15 K, 101 kPa, x1 = 0.528	1.907 ± 0.057
323.15 K, 101 kPa, x1 = 0.55	1.733 ± 0.051
323.15 K, 101 kPa, x1 = 0.599	1.539 ± 0.044
323.15 K, 101 kPa, x1 = 0.664	1.32 ± 0.037
323.15 K, 101 kPa, x1 = 0.699	1.174 ± 0.033
323.15 K, 101 kPa, x1 = 0.801	0.978 ± 0.027
323.15 K, 101 kPa, x1 = 0.9	0.847 ± 0.023

NCCN + CC(O)CO
viscosity [mPa·s], 101 kPa
Details	293.15 K	298.15 K	303.15 K	308.15 K	313.15 K	318.15 K
x2 = 0.0399	1.85 ± 0.04	1.64 ± 0.03	1.48 ± 0.03	1.33 ± 0.03	1.2 ± 0.03	1.08 ± 0.02
x2 = 0.0807	2.29 ± 0.05	2 ± 0.04	1.82 ± 0.04	1.62 ± 0.03	1.43 ± 0.03	1.29 ± 0.03
x2 = 0.1223	2.72 ± 0.06	2.49 ± 0.05	2.23 ± 0.05	1.95 ± 0.04	1.81 ± 0.04	1.54 ± 0.03
x2 = 0.1649	3.73 ± 0.08	3.14 ± 0.07	2.84 ± 0.06	2.47 ± 0.05	2.21 ± 0.05	1.89 ± 0.04
x2 = 0.2084	4.73 ± 0.1	4.04 ± 0.08	3.54 ± 0.07	3.02 ± 0.06	2.63 ± 0.06	2.28 ± 0.05
x2 = 0.2529	6.26 ± 0.13	5.27 ± 0.11	4.5 ± 0.09	3.9 ± 0.08	3.33 ± 0.07	–
x2 = 0.2984	8.74 ± 0.18	7.05 ± 0.15	6 ± 0.13	5.01 ± 0.1	4.23 ± 0.09	–
x2 = 0.3449	11.9 ± 0.3	9.4 ± 0.2	7.92 ± 0.16	6.61 ± 0.14	5.49 ± 0.11	–
x2 = 0.3926	16.9 ± 0.4	12.4 ± 0.3	10.5 ± 0.2	8.39 ± 0.17	6.94 ± 0.14	–
x2 = 0.4413	22.8 ± 0.5	16.9 ± 0.4	13.6 ± 0.3	10.7 ± 0.2	8.8 ± 0.18	–
x2 = 0.4912	30.5 ± 0.6	22.5 ± 0.5	17.7 ± 0.4	13.7 ± 0.3	11 ± 0.2	–
x2 = 0.5423	39.6 ± 0.8	28.8 ± 0.6	22.7 ± 0.5	17.2 ± 0.4	13.6 ± 0.3	–
x2 = 0.5946	48.1 ± 1	34.7 ± 0.7	27.4 ± 0.6	20.6 ± 0.4	16.1 ± 0.3	–
x2 = 0.6483	55.8 ± 1.1	41.5 ± 0.9	31.7 ± 0.7	23.6 ± 0.5	18.5 ± 0.4	–
x2 = 0.7032	62.6 ± 1.3	46.3 ± 1	35.2 ± 0.7	25.9 ± 0.5	20.3 ± 0.4	–
x2 = 0.7596	66.6 ± 1.4	49.7 ± 1	37.8 ± 0.8	27.6 ± 0.6	21.6 ± 0.4	–
x2 = 0.8174	66.8 ± 1.4	49.9 ± 1	38.4 ± 0.8	28.4 ± 0.6	22.2 ± 0.5	–
x2 = 0.8767	64.5 ± 1.3	48.8 ± 1	37.4 ± 0.8	27.4 ± 0.6	22.1 ± 0.5	–
x2 = 0.9375	60.7 ± 1.2	46.2 ± 1	35.5 ± 0.7	26.2 ± 0.5	21.1 ± 0.4	–
